# Measured values from patent US7709482B2, “Polycyclic heteroaryl substituted triazoles useful as Axl inhibitors” (Rigel Pharmaceuticals, Inc., priority 2006, dated 2010).
# pIC50: −log10 of the molar value.
# Target: T1, Axl (Homo sapiens, UniProt P30530)
# T1 construct: endogenous in cells; host or cells: HeLa cells
# T1 sequence (P30530 26-894): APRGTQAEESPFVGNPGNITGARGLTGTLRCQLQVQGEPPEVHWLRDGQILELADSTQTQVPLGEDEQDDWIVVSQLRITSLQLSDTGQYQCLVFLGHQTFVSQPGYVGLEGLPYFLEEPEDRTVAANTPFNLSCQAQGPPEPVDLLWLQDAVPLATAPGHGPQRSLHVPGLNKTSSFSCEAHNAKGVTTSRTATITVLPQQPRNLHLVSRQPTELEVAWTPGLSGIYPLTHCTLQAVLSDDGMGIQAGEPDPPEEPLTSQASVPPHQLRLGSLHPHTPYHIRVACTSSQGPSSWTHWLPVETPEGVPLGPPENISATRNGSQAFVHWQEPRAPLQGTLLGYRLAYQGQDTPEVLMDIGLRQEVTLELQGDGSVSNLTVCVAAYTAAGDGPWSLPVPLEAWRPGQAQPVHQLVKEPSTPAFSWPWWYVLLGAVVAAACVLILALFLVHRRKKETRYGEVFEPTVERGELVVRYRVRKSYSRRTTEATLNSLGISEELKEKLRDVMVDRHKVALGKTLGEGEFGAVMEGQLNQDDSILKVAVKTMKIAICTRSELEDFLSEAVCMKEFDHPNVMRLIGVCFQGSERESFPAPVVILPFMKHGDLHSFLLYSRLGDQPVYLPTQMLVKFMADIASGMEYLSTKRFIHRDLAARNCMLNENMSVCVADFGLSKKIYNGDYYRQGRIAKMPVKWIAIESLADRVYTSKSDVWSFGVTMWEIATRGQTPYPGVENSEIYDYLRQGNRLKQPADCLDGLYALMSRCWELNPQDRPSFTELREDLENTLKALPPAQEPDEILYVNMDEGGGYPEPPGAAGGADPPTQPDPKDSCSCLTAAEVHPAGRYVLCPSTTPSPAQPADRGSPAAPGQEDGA
# Assay: Phospho-Akt In-Cell Western Assay (inhibition of Axl activity after Axl-antibody cross-linking)
# Type: cell-based
# Details: Hela cells, phospho-Akt chemiluminescence normalized to relative cell number; compounds of formula (Ia), Table 1; read-out: IC50
# Experimental: The compounds of the invention were tested in the following assay for their ability to inhibit Axl activity.
# Phospho-Akt In-Cell Western Assay
# • Cell culture plate: 96 well assay plate (Corning 3610), white, clear bottom, tissue-culture treated. • Cells: Hela cells. • Starvation medium: For Axl stimulation: 0.5% FCS (fetal calf serum) in DMEM, plus Axl/Fc (extracellular domain of AXL fused to immunoglobulin Fc region) (R&D, 154-AL) 500 ng/mL. • For EGF (epidermal growth factor) stimulation: 0.5% FCS in DMEM (Dulbecco's modified Eagles medium). • Poly-L-Lysine 0.01% solution (the working solution): […], dilute In PBS (phosphate buffered saline). • Axl antibody cross-linking: • 1st: Mouse anti-Axl (R&D, MAB154). • 2nd: Biotin-SP-conjugated AffiniPure goat anti-mouse IgG (H+ L) (Jackson ImmunoResearch #115-065-003). • Fixing buffer: 4% formaldehyde in PBS. • Wash buffer: 0.1% TritonX-100 in PBS. • Quenching buffer: 3% H2O2, 0.1% Azide in wash buffer, Azide and hydrogen peroxide (H2O2) are added fresh. • Blocking buffer: 5% BSA in TBST (tris buffered saline plus 0.1% Tween 20). • Primary antibody: Rabbit anti-human Phospho-Akt antibody (Cell Signaling 9271): 1×250 diluted in blocking buffer. • Secondary antibody: HRP (horse radish peroxidase)-conjugated Goat anti-Rabbit secondary, stock solution: Jackson ImmunoResearch (Goat anti-Rabbit HRP, #111-035-144) 1:1 diluted in glycerol, store at −20° C. The working solution: 1×2000 dilution of stock in blocking buffer. • Chemiluminescent working solution (Pierce, 37030): SuperSignal ELISA (enzyme linked immunosorbant assay) Pico Chemiluminescent substrate. • Crystal Violet solution: Stock: 2.5% Crystal violet in methanol, filtered and kept at ambient temperature. The working solution: dilute the stock 1:20 with PBS immediately before use. • 10% SDS: working solution: 5% SDS (sodium dodecylsulfate), diluted in PBS Methods: Day 1:
# A 96 well TC (tissue culture treated) plate was coated with 10 μg/mL poly-L-Lysine at 37° C. for 30 min, washed twice with PBS, and air-dried for 5 minutes before cells were added. Hela cells were seeded at 10,000 cells/well and the cells were starved in 100 μL starvation medium containing Axl/Fc for 24 hrs.
# The cells were pre-treated with test compounds by adding 100 μL of 2× test compound to the starvation medium on the cells. The cells were incubated at 37° C. for 1 hr before stimulation.
# The resulting mix was warmed to 37° C. 50 μL of 5×Axl 1st/2nd of antibody cluster was added to the cells and the cells were incubated at 37° C. for 5 min.
# After 5 minutes stimulation, the plate was flicked to remove medium and the plate was tapped onto paper towels. Formaldehyde (4.0% in PBS, 100 μL) was added to fix the cells and the cells were incubated at ambient temperature for 20 min without shaking.
# The cells were washed with a plate washer buffer to remove the formaldehyde solution. The plate was flicked to removed excess wash buffer and tapped onto paper towels. Quenching buffer (100 μL) was added to each well and the cells were incubated at ambient temperature for 20 minutes without shaking.
# The cells were washed with a plate washer buffer to remove the quenching buffer. Blocking buffer (100 μL) was added and the cells were incubated at ambient temperature for at least an hour with gentle shaking.
# The cells were washed with a plate washer buffer and diluted primary antibody (50 μL) was added to each well (blocking buffer was added to the negative control wells instead). The plates were incubated overnight at 4° C. with gentle shaking.
# The wash buffer was removed, diluted secondary antibody (100 μL) was added, and the cells were incubated at ambient temperature for 1 hour with gentle shaking. During the incubation, the chemiluminescent reagent was brought to ambient temperature.
# The secondary antibody was removed by washing the cells 1× with wash buffer, 1× with PBS by plate washer.
row,SMILES,pIC50
1,"CCN(CC)C1CCN(c2ccc(Nc3nc(N)n(-c4ncnc5c4CCCc4ccccc4-5)n3)cc2F)CC1 [Compound 39, 1-(6,7-dihydro-5H-benzo[6,7]cyclohepta[1,2-d]pyrimidin-4-yl)-N^3-(3-fluoro-4-(4-(diethylamino)piperidin-1-yl)phenyl)-1H-1,2,4-triazole-3,5-diamine]",> 6.00
2,"CN1CCN(c2ccc(Nc3nc(N)n(-c4ncc5c(n4)-c4ccccc4CCC5)n3)cc2)CC1 [Compound 40, 1-(6,7-dihydro-5H-benzo[6,7]cyclohepta[1,2-d]pyrimidin-2-yl)-N^3-(4-(N-methylpiperazin-1-yl)phenyl)-1H-1,2,4-triazole-3,5-diamine]",5.00 to 6.00
3,"CN1CCN(c2ccc(Nc3nc(N)n(-c4cc5c(nn4)-c4ccccc4N(C)CC5)n3)cc2)CC1 [Compound 41, 1-(7-methyl-6,7-dihydro-5H-benzo[2,3]azepino[4,5-c]pyridazin-3-yl)-N^3-(4-(N-methylpiperazin-1-yl)phenyl)-1H-1,2,4-triazole-3,5-diamine]",5.00 to 6.00
4,"CN1CCc2cc(-n3nc(Nc4ccc(OCCN5CCCC5)c(F)c4)nc3N)nnc2-c2ccccc21 [Compound 42, 1-(7-methyl-6,7-dihydro-5H-benzo[2,3]azepino[4,5-c]pyridazin-3-yl)-N^3-(3-fluoro-4-(2-(pyrrolidin-1-yl)ethoxy)phenyl)-1H-1,2,4-triazole-3,5-diamine]",> 6.00
5,"CN1CCc2cc(-n3nc(Nc4ccc(N5CCN(C6CCCCC6)CC5)c(F)c4)nc3N)nnc2-c2ccccc21 [Compound 43, 1-(7-methyl-6,7-dihydro-5H-benzo[2,3]azepino[4,5-c]pyridazin-3-yl)-N^3-(3-fluoro-4-(4-cyclohexylpiperazinyl)phenyl)-1H-1,2,4-triazole-3,5-diamine]",5.00 to 6.00
6,"Nc1nc(Nc2ccc(OCCN3CCCC3)c(F)c2)nn1-c1ncc2c(n1)-c1ccccc1CCC2 [Compound 44, 1-(6,7-dihydro-5H-benzo[6,7]cyclohepta[1,2-d]pyrimidin-2-yl)-N^3-(3-fluoro-4-(2-(pyrrolidin-1-yl)ethoxy)phenyl)-1H-1,2,4-triazole-3,5-diamine]",> 6.00
7,"Nc1nc(Nc2ccc(N3CCN(C4CCCCC4)CC3)c(F)c2)nn1-c1ncc2c(n1)-c1ccccc1CCC2 [Compound 45, 1-(6,7-dihydro-5H-benzo[6,7]cyclohepta[1,2-d]pyrimidin-2-yl)-N^3-(3-fluoro-4-(4-cyclohexylpiperazinyl)phenyl)-1H-1,2,4-triazole-3,5-diamine]",> 6.00
8,"Nc1nc(Nc2ccc(N3CCN([C@H]4CC5CCC4C5)CC3)cc2)nn1-c1ncc2c(n1)-c1ccccc1CCC2 (stereo partly drawn) [Compound 46, 1-(6,7-dihydro-5H-benzo[6,7]cyclohepta[1,2-d]pyrimidin-2-yl)-N^3-(4-(4-(2S)-bicyclo[2.2.1]heptan-2-yl)-piperazinylphenyl)-1H-1,2,4-triazole-3,5-diamine]",> 6.00
9,"Nc1nc(Nc2ccc(OCCN3CCCC3)c(Cl)c2)nn1-c1cc2c(nn1)-c1ccccc1CCC2 [Compound 47, 1-(6,7-dihydro-5H-benzo[6,7]cyclohepta[1,2-c]pyridazin-3-yl)-N^3-(3-chloro-4-(2-(pyrrolidin-1-yl)ethoxy)phenyl)-1H-1,2,4-triazole-3,5-diamine]",5.00 to 6.00
10,"Nc1nc(Nc2ccc(OCCN3CCCC3)c(F)c2)nn1-c1cc2c(nn1)-c1ccccc1CCC2 [Compound 48, 1-(6,7-dihydro-5H-benzo[6,7]cyclohepta[1,2-c]pyridazin-3-yl)-N^3-(3-fluoro-4-(2-(pyrrolidin-1-yl)ethoxy)phenyl)-1H-1,2,4-triazole-3,5-diamine]",5.00 to 6.00
11,"Nc1nc(Nc2ccc(OCCN3CCCC3)cc2)nn1C1=Nc2ccccc2Sc2ccccc21 [Compound 49, 1-((Z)-dibenzo[b,f][1,4]thiazepin-11-yl)-N^3-(4-(2-(pyrrolidin-1-yl)ethoxy)phenyl)-1H-1,2,4-triazole-3,5-diamine]",5.00 to 6.00
